Data reported in patent US8628762B2, “T-helper cell type 17 lineage-specific adjuvants, compositions and methods” (Icahn School of Medicine at Mount Sinai, priority 2008, dated 2014).

How the values were obtained:
Naïve CD4 T-cells [1] = assay: qPCR of lineage genes in naïve CD4 T-cells cultured with DCCM; assay type: cell-based, C57BL/6J mice
Text: (§1) Naïve CD4 T cells were isolated first by sorting with MACS® CD4^+ beads (Miltenyi Biotech, Auburn, Calif.) according to manufacturer's instructions and then by fluorescence activated cell sorting (FACS) using a MoFlo™, Vantage, or Influx™ cell sorter for CD25^−CD44^lowCD62L^high cells using allophycocyanin (APC)-conjugated anti-CD25 monoclonal antibody (mAb) (clone PC61.5), FITC-conjugated CD62L mAb (clone MEL-14), and PE-Cy5-conjugated CD44 mAb (clone IM7) (all from eBioscience™, San Diego, Calif.). Cells were grown in complete IMDM (Gibco, Carlsbad, Calif.) supplemented with 10% FBS, 100 μg/mL penicillin, 100 μg/mL streptomycin, 2 mM L-glutamine, 10 mM HEPES, and 1 nM sodium pyruvate, and activated on 48-well tissue-culture plates which had been coated with 4 μg anti-CD3 (clone 2C11) for 3 h at 37° C., then washed 3 times with PBS. Cultures were supplemented with 2 μg/mL anti-CD28 (clone 37-51, a kind gift from J. Allison, Sloan-Kettering Cancer Center) and anti-IL-4 ascites (clone 11B11, a kind gift from T. Moran, Mount Sinai School of Medicine, ATCC number HB188) at 1:500. mAbs 2C11 and 37-51 were purified from hybridoma supernatants by BioXCell Company (West Lebanon, N.H.). When cultured with conditioned medium (CM) from BMDC, T cells were grown in 1:1 CM:fresh complete IMDM. […]
T cells cultured for 48 hours under the indicated conditions were lysed and RNA isolated by TRIzol® extraction (Invitrogen) according to manufacturer's instructions. […] Quantitative real-time, reverse transcription polymerase chain reaction (qPCR) was conducted on an ABI Prism® 7900 instrument (Applied Biosystems, Foster City, Calif.) with primer pairs and probes as follows. […]
Quantitative PCR was performed using TaqMan® quantitative PCR Master Mix at a concentration of 1× (Applied Biosystems). […] “Fold inductions” were calculated using the ΔΔCt method relative to T cells activated under neutral conditions (No cytokines or CM). […]

Naïve CD4 T-cells [2] = assay: In vitro T-cell differentiation in DC conditioned medium, IL-17/IL-10 in supernatants by ELISA; assay type: cell-based, C57BL/6J mice
Description: Bone marrow (BM)-derived GM-CSF DC cultures were grown in RPMI supplemented with GM-CSF and 5% foetal bovine serum (FBS), plus 100 μg/mL penicillin, 100 μg/mL streptomycin, 2 mM L-glutamine, 10 mM HEPES, 1 nM sodium pyruvate, 1×MEM nonessential amino acids, and 2.5 μM β-mercaptoethanol (all from Sigma-Aldrich, St. Louis, Mo.), as previously dcseribed^1. Semi-adherent cells were harvested on ice on day 5 and re-plated immediately in fresh GM-CSF medium at 1×10^6 cells/well in 24-well tissue culture-treated plates. Soluble or phagocytic stimuli were added right away to the plates in the same medium and the cells were centrifuged for 2 min at 2000 rpm. Supernatants (conditioned medium, CM) were collected after 18 hours. LPS (from E. coli, serotype 055:B5, L-2880) was purchased from Sigma-Aldrich. BMDC were treated with various doses of soluble LPS or 2:1 A20 LPS blasts:DC to titrate the LPS such that levels of IL-6 produced by DC in response to these stimuli was similar. Soluble LPS was used at a final concentration of 1 ng/mL. The A20 B-cell line was obtained from the ATCC (TIB-208). A20 LPS blasts were prepared by culturing A20 cells at 1×10^6 cells/mL, 3 mL/well in 6-well tissue culture plates for four days in RPMI medium supplemented with 10% FBS, with 100 μg/mL penicillin, 100 μg/mL streptomycin, 2 mM L-glutamine, 10 mM HEPES, 1 nM sodium pyruvate, plus 25 μg/mL LPS, as previously described in Blander, J. M. and Medzhitov, R. (2004) Science 304(5673):1014. […] Cells were centrifuged, counted, and apoptosis was induced by UV irradiation at 350 mJ. […]
Naïve CD4 T cells were isolated first by sorting with MACS® CD4^+ beads (Miltenyi Biotech, Auburn, Calif.) according to manufacturer's instructions and then by fluorescence activated cell sorting (FACS) using a MoFlo™, Vantage, or Influx™ cell sorter for CD25^−CD44^lowCD62L^high cells using allophycocyanin (APC)-conjugated anti-CD25 monoclonal antibody (mAb) (clone PC61.5), FITC-conjugated CD62L mAb (clone MEL-14), and PE-Cy5-conjugated CD44 mAb (clone IM7) (all from eBioscience™, San Diego, Calif.). […]

Bone marrow DC = assay: TGF-β bioassay of DC conditioned medium (MFB-F11 SBE-SEAP reporter cells); assay type: cell-based, mice
Description: Analysis of bioactive TGF-β was performed as previously described in Tesseur, I. et al. (2006) BMC Cell Biol 7: 15. MFB-F11 mouse fibroblast cells stably transfected with a reporter plasmid consisting of TGF-β-responsive Smad-binding elements coupled to a secreted alkaline phosphatase reporter gene (SBE-SEAP) were seeded at 3×10^4 cells/well in 96-well flat bottom tissue culture plates and cultured overnight in DMEM supplemented with 10% FBS and penicillin/streptomycin (DMEM/P/S). Cells were washed twice with PBS and incubated in 50 μL serum-free DMEM for 2 hours. Conditioned medium from DC was diluted 1:5 in serum-free DMEM/P/S and 5 μL was added to the MFB-F11 cells. For detection of total TGF-β, diluted conditioned medium was activated by adding 1.5 μL 6M HCl to 150 μL of sample and incubating 10 minutes at room temperature. Neutralization was performed by adding 1.5 μL 6M NaOH. […] SEAP activity was measured using Great EscAPe™ SEAP Reporter System 3 (Clontech, Mountain View, Calif.) according to the manufacturer's protocol with 96-well white/flat bottom plates. Luciferase activity was measured with a FLUOStar Optima reader (BMG Labtech, Durham, N.C.). For each sample, the concentration of biologically active TGF-β was calculated as follows: (luciferase activity of bio-active TGF-β/luciferase activity for total TGF-β)×100. […]

Naïve CD4 T-cells [3] = assay: CD4 T-cells in DCCM re-plated on anti-CD3 for 48 h with neutralizing mAbs or IL-23, cytokines by ELISA; assay type: cell-based, C57BL/6J mice; settings: re-stimulation for 48 h in the presence of 10 ng/mL IL-23
Text: as §1, with “PBS.” for “PBS. Cultures were supplemented with 2 μg/mL anti-CD28 (clone 37-51, a kind gift from J. Allison, Sloan-Kettering Cancer Center) and anti-IL-4 ascites (clone 11B11, a kind gift from T. Moran, Mount Sinai School of Medicine, ATCC number HB188) at 1:500. mAbs 2C11 and 37-51 were purified from hybridoma supernatants by BioXCell Company (West Lebanon, N.H.). When cultured with conditioned medium (CM) from BMDC, T cells were grown in 1:1 CM:fresh complete IMDM.”
Next, naïve CD4 T-cells were isolated from C57BL/6J mice and activated with 4 μg anti-CD3 and 2 μg/mL anti-CD28 plus anti-IL-4 with CM from C57BL/6J (WT) BMDC that had phagocytosed apoptotic LPS B cell-blasts. […] Cytokines were quantified in supernatants by ELISA. […]

## TGF-β
Naïve CD4 T-cells [1]; quantitative RT-PCR
  Foxp3 mRNA induction: highest induction

## curdlan
Naïve CD4 T-cells [2]; DC derived from MyD88−/−Trif−/− and Tlr4−/− mice, TGF-β concomitantly present
  induction of IL-17+ CD4 T-cells: able to direct induction of IL-17^+ CD4 T-cells

## lipopolysaccharide [free LPS]
Naïve CD4 T-cells [2]; three days in CM, with IFN-γ neutralizing antibody
  IL-17 secreting CD4 T-cells: some induction of IL-17 secreting (IL-17^+) CD4 T-cells
Bone marrow DC
  production of biologically active TGF-β by DC: did not

B1: IL-12: cytokine (eBioscience), 10 ng/mL (protein, UniProt P43431 23-215; P43432 23-335, looked up)
Interleukin-12 subunit alpha: RVIPVSGPARCLSQSRNLLKTTDDMVKTAREKLKHYSCTAEDIDHEDITRDQTSTLKTCLPLELHKNESCLATRETSSTTRGSCLPPQKTSLMMTLCLGSIYEDLKMYQTEFQAINAALQNHNHQQIILDKGMLVAIDELMQSLNHNGETLRQKPPVGEADPYRVKMKLCILLHAFSTRVVTINRVMGYLSSA
Interleukin-12 subunit beta: MWELEKDVYVVEVDWTPDAPGETVNLTCDTPEEDDITWTSDQRHGVIGSGKTLTITVKEFLDAGQYTCHKGGETLSHSHLLLHKKENGIWSTEILKNFKNKTFLKCEAPNYSGRFTCSWLVQRNMDLKFNIKSSSSSPDSRAVTCGMASLSAEKVTLDQRDYEKYSVSCQEDVTCPTAEETLPIELALEARQQNKYENYSTSFFIRDIIKPDPPKNLQMKPLKNSQVEVSWEYPDSWSTPHSYFSLKFFVRIQRKKEKMKETEEGCNQKGAFLVEKTSTEVQCKGGNVCVQAQDRYYNSSCSKWACVPCRVRS
Naïve CD4 T-cells [1]; qPCR after 48 hours of culture
  expression of TH1 lineage-specific transcription factor T-bet: expressed the TH1 lineage-specific transcription factor

B2: IL-23: cytokine (eBioscience), 10 ng/mL (protein, UniProt Q9EQ14 22-196; P43432 23-335, looked up)
Interleukin-23 subunit alpha: VPRSSSPDWAQCQQLSRNLCMLAWNAHAPAGHMNLLREEEDEETKNNVPRIQCEDGCDPQGLKDNSQFCLQRIRQGLAFYKHLLDSDIFKGEPALLPDSPMEQLHTSLLGLSQLLQPEDHPRETQQMPSLSSSQQWQRPLLRSKILRSLQAFLAIAARVFAHGAATLTEPLVPTA
Interleukin-12 subunit beta: B1 Interleukin-12 subunit beta
Naïve CD4 T-cells [3]
  levels of IL-17 produced: only slightly increased the levels of IL-17 produced
  total levels of IL-10 produced: markedly impaired
